Measured values from ChEMBL document CHEMBL1143037, “Discovery of +(2-{4-[2-(5,6,7,8-tetrahydro-1,8-naphthyridin-2-yl)ethoxy]phenyl}-cyclopropyl)acetic acid as potent and selective alphavbeta3 inhibitor: design, synthesis, and optimization” (Bioorg Med Chem, 2007).

Experiments:
Integrin alpha-V/beta-3 [1] = target: T1, Integrin alpha-V/beta-3 (Homo sapiens, UniProt P05106+P06756); test: Inhibition of human integrin alpha-v-beta-3 receptor by solid phase receptor assay; format: protein-complex assay
Integrin alpha-V/beta-3 [2] = target: T1, Integrin alpha-V/beta-3; test: Inhibition of human integrin alpha-v-beta-3 receptor expressed in HEK293 cells; format: cell-based
Integrin alpha-V/beta-6 = Integrin alpha-V/beta-6 (Homo sapiens, UniProt P06756+P18564); test: Inhibition of integrin alpha-beta-6 receptor expressed in HT29 cells; format: cell-based, HT-29
Rattus norvegicus [3] = species: Rattus norvegicus; test: (§1) Half life in Sprague-Dawley rat; format: ADME, organism-based; details: in vivo
Rattus norvegicus [4] = species: Rattus norvegicus; test: (§2) Cmax in Sprague-Dawley rat; format: ADME, organism-based; details: in vivo
Rattus norvegicus [5] = species: Rattus norvegicus; test: (§3) Volume of distribution in Sprague-Dawley rat; format: ADME, organism-based; details: in vivo
[6] = Bioavailability in Swiss-Webster mouse at 2 mg/kg; format: ADME, organism-based; details: in vivo
[7] = AUC in Swiss-Webster mouse at 20 mg/kg, iv; format: ADME, organism-based; set-up: dose 20 mg/kg, route intravenous; details: plasma
Integrin alpha-V/beta-1 = Integrin alpha-V/beta-1 (Homo sapiens, UniProt P05556+P06756); test: Inhibition of integrin alphavbeta1 receptor expressed in HEK293 cells; format: cell-based
[8] = Half life in Swiss-Webster mouse at 2 mg/kg; format: ADME, organism-based; set-up: dose 2 mg/kg; details: in vivo
[9] = AUC in Swiss-Webster mouse at 20 mg/kg, po; format: ADME, organism-based; set-up: dose 20 mg/kg, route oral; details: plasma
[10] = as §2; format: ADME, organism-based; details: Sprague-Dawley, in vivo
Rattus norvegicus [11] = species: Rattus norvegicus; test: (§4) Bioavailability in Sprague-Dawley rat; format: ADME, organism-based; details: in vivo
Integrin alpha-V/beta-5 = Integrin alpha-V/beta-5 (Homo sapiens, UniProt P06756+P18084); test: Inhibition of integrin alpha-v-beta-5 receptor expressed in HEK293 cells; format: cell-based
[12] = Clearance in Sprague-Dawley rat; format: ADME, organism-based; details: in vivo
[13] = as §1; format: ADME, organism-based; details: Sprague-Dawley, in vivo
[14] = as §4; format: ADME, organism-based; details: Sprague-Dawley, in vivo
[15] = as §3; format: ADME, organism-based; details: Sprague-Dawley, in vivo, read-out: Vdss
[16] = Half life in Swiss-Webster mouse at 20 mg/kg; format: ADME, organism-based; set-up: dose 20 mg/kg; details: in vivo
[17] = Bioavailability in Swiss-Webster mouse at 20 mg/kg; format: ADME, organism-based; details: in vivo

T1 sequence (P05106 27-788 limits assumed): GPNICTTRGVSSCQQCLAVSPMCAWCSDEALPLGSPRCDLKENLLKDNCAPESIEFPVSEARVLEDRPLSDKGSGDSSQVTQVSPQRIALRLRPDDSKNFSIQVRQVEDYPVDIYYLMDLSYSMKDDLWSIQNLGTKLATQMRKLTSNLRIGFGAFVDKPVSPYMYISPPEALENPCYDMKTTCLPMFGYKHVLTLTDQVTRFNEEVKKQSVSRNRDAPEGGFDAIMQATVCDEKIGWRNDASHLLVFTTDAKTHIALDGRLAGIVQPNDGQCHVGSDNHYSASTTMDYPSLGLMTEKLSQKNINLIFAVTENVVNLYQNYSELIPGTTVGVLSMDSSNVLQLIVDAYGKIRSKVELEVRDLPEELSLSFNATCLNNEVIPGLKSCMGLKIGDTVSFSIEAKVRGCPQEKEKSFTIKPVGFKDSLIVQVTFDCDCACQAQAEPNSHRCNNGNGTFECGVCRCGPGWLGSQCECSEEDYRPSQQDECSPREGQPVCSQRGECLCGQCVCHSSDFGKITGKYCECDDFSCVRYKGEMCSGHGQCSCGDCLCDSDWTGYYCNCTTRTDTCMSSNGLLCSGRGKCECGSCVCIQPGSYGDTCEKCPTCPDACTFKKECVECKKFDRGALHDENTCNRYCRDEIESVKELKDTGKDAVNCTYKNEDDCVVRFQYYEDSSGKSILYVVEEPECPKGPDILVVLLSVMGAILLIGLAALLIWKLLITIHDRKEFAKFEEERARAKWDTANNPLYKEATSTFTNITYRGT
T1 sequence (P06756 31-889 limits assumed): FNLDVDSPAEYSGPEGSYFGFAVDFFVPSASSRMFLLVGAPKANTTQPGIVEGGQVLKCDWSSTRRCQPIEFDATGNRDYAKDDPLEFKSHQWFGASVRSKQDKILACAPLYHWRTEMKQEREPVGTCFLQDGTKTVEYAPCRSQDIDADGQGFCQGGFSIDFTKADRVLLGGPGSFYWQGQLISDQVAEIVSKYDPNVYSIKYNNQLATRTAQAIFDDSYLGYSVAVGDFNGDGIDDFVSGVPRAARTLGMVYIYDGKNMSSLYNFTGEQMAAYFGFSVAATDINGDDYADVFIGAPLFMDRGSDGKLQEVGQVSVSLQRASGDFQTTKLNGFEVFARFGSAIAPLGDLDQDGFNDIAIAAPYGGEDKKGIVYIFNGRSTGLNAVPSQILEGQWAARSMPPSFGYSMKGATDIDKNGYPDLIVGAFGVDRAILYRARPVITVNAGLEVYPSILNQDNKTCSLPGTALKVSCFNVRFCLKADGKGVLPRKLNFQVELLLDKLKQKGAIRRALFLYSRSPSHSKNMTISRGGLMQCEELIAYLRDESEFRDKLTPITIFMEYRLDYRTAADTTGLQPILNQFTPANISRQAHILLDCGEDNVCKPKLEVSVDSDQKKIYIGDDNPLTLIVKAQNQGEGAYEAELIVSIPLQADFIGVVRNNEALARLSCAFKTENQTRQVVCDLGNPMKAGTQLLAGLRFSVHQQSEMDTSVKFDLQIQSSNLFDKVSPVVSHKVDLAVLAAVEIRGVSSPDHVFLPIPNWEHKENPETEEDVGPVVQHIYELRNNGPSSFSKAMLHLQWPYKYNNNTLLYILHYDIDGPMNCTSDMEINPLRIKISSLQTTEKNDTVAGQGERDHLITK
T1 sequence (P06756 891-1048 limits assumed): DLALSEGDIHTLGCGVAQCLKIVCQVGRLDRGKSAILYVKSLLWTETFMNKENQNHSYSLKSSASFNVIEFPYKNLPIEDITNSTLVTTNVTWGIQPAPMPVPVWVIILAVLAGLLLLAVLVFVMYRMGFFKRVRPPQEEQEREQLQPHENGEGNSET
Sequence of Integrin alpha-V/beta-1 (P05556 21-798 limits assumed): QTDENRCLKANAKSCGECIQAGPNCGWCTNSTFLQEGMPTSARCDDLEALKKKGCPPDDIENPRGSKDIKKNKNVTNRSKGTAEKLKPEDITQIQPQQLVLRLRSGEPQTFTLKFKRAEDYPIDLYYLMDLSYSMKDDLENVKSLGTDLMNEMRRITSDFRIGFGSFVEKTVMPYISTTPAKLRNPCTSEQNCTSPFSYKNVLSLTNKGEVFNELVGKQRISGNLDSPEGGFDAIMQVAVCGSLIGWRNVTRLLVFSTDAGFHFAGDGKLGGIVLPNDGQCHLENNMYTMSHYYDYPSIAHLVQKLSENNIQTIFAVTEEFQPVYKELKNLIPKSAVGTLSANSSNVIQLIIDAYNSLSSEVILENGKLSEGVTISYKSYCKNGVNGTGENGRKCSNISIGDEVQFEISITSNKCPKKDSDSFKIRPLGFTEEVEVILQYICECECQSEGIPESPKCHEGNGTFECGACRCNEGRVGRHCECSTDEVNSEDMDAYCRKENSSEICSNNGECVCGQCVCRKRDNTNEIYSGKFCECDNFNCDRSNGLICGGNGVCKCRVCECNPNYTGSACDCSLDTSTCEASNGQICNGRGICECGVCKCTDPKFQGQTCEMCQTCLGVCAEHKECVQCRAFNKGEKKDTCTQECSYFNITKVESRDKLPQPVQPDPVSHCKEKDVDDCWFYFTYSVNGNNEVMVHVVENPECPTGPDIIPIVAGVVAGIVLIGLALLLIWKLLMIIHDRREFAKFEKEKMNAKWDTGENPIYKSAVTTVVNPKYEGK
Sequence of Integrin alpha-V/beta-1 (P06756 31-889 limits assumed): as the sequence (P06756 31-889 limits assumed) above
Sequence of Integrin alpha-V/beta-1 (P06756 891-1048 limits assumed): as the sequence (P06756 891-1048 limits assumed) above
Sequence of Integrin alpha-V/beta-6 (P06756 31-889 limits assumed): as the sequence (P06756 31-889 limits assumed) above
Sequence of Integrin alpha-V/beta-6 (P06756 891-1048 limits assumed): as the sequence (P06756 891-1048 limits assumed) above
Sequence of Integrin alpha-V/beta-6 (P18564 22-788 limits assumed): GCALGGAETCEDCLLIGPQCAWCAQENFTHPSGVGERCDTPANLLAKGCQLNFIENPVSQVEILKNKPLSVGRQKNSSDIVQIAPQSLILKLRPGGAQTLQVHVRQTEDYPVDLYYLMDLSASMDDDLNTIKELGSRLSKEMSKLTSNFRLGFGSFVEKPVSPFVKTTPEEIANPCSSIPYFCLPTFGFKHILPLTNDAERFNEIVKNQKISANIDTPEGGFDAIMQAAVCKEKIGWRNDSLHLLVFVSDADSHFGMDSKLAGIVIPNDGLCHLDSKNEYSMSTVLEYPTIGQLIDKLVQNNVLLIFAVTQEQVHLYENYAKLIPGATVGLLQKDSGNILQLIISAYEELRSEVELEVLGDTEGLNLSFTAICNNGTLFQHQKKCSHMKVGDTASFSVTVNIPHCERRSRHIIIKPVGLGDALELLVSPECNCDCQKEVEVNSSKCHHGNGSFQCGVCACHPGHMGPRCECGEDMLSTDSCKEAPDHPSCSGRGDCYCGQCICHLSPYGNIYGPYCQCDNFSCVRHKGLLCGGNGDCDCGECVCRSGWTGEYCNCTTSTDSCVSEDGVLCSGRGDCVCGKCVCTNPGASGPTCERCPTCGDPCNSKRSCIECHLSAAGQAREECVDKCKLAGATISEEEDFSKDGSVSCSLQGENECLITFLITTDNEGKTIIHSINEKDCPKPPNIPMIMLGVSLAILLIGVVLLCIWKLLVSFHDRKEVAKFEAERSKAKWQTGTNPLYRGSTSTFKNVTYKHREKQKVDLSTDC
Sequence of Integrin alpha-V/beta-5 (P06756 31-889 limits assumed): as the sequence (P06756 31-889 limits assumed) above
Sequence of Integrin alpha-V/beta-5 (P06756 891-1048 limits assumed): as the sequence (P06756 891-1048 limits assumed) above
Sequence of Integrin alpha-V/beta-5 (P18084 24-799 limits assumed): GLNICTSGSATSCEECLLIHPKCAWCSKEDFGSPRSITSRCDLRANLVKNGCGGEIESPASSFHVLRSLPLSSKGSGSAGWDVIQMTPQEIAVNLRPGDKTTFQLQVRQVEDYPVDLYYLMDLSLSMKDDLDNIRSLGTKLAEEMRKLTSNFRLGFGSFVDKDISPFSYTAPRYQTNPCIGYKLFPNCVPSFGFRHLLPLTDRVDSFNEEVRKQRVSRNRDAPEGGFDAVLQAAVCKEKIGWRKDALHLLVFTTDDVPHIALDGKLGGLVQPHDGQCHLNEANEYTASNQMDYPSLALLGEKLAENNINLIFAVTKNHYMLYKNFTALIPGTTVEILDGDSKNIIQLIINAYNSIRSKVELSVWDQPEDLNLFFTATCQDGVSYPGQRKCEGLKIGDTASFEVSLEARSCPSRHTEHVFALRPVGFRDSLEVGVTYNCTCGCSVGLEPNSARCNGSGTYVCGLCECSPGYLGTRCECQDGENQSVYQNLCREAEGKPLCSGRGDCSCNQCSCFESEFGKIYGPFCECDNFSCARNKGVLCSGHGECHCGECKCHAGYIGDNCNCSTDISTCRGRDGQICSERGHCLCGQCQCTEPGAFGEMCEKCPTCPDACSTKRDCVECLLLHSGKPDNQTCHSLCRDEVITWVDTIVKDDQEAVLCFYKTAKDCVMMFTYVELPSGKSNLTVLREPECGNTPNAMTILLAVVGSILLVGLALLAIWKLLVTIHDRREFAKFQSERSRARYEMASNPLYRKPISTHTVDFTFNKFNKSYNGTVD

Row | Structure (SMILES) | IC50 (Integrin alpha-V/beta-3 [1]) [nM] | IC50 (Integrin alpha-V/beta-3 [2]) [nM] | IC50 (Integrin alpha-V/beta-6) [µM] | IC50 (Integrin alpha-V/beta-1) [nM] | IC50 (Integrin alpha-V/beta-5) [nM] | other results
1 | O=C(O)CCC1CC1c1cccc(OCCc2ccc3c(n2)NCCC3)c1 (stereo unspecified) | 954 | 525 |  |  |  | 
2 | CC1(c2ccc(OCCc3ccc4c(n3)NCCC4)cc2)CC1CC(=O)O (stereo unspecified) | 36 |  |  |  |  | 
3 | CC1(C)C(CC(=O)O)C1c1ccc(OCCc2ccc3c(n2)NCCC3)cc1 (single isomer, unassigned; (-)) | 42 |  | 10 |  |  | 
4 | O=C(O)CCC1CC1c1ccc(OCCc2ccc3c(n2)NCCC3)nc1 (stereo unspecified) | 472 | 156 |  |  |  | 
5 | O=C(O)CC1CC1c1ccc(OCCCNc2ccccn2)cc1 (stereo unspecified) | 19 | 42 |  | 234 |  | bioavailability [6]: 79%; AUC [7]: 14200 ng·h/mL; half-life [8]: 138 min; AUC [9]: 18300 ng·h/mL
6 | O=C(O)CC1CC1c1cccc(OCCc2ccc3c(n2)NCCC3)c1 (stereo unspecified) | 776 | 205 | 9.6 |  |  | 
7 | O=C(O)CC1CC1c1ccc(OCCc2ccc3c(n2)NCCC3)nc1 (stereo unspecified) | 1900 |  | 10 |  |  | 
8 | O=C(O)CC1(c2ccccc2)CC1c1ccc(OCCc2ccc3c(n2)NCCC3)cc1 (stereo unspecified) | 2700 |  |  |  |  | 
9 | O=C(O)CCC1CC1c1ccc(OCc2ccc3c(n2)NCCC3)cc1 (stereo unspecified) | 1000 |  |  |  |  | 
10 | CC(CC(=O)O)Cc1ccc(OCCCNc2ccccn2)cc1 (stereo unspecified) | 21 | 51 | 4.36 | 102 | 33 | AUC [7]: 106000 ng·h/mL; half-life [16]: 246 min; AUC [9]: 195000 ng·h/mL; bioavailability [17]: 92%

Now those with a lower IC50 (Integrin alpha-V/beta-3 [1]), led by results:

Row | IC50 (Integrin alpha-V/beta-3 [1]) [nM] | IC50 (Integrin alpha-V/beta-3 [2]) [nM] | IC50 (Integrin alpha-V/beta-6) [µM] | IC50 (Integrin alpha-V/beta-1) [nM] | IC50 (Integrin alpha-V/beta-5) [nM] | Structure (SMILES) | other results
11 | 16 | 16 | 10 | 297 | 33 | O=C(O)CC1CC1c1ccc(OCCc2ccc3c(n2)NCCC3)cc1 (single isomer, unassigned; (-)) | 
12 | 12 |  |  |  |  | CC1(C)[C@H](c2ccc(OCCc3ccc4c(n3)NCCC4)cc2)[C@@H]1CC(=O)O (relative stereo) | 
13 | 8 | 29 | 19.8 | 96 | 20 | O=C(O)CC(Cc1ccc(OCCCNc2ccccn2)cc1)c1ccccc1 (stereo unspecified) | bioavailability [6]: 100%; AUC [7]: 2300 ng·h/mL; half-life [8]: 264 min; AUC [9]: 2800 ng·h/mL
14 | 7.4 | 7 | 20 |  |  | CNc1cccc(CCOc2ccc(C3CC3CC(=O)O)cc2)n1 (stereo unspecified) | 
15 | 5 | 3 |  | 64 | 4.4 | O=C(O)CC1CC1c1ccc(OCCc2ccc3c(n2)NCCC3)cc1 (stereo in doubt; 7) | bioavailability [6]: 62%; AUC [7]: 378000 ng·h/mL; t1/2 (Rattus norvegicus [3]): 1.6 h; half-life [8]: 96 min; AUC [9]: 398000 ng·h/mL; Cmax [10]: 24500 ng/mL; F (Rattus norvegicus [11]): 62%; Vdss (Rattus norvegicus [5]): 221 mL/kg
16 | 3.3 | 1.7 | 4.33 |  | 20 | O=C(O)CC1C(c2ccc(OCCc3ccc4c(n3)NCCC4)cc2)C1(Br)Br (stereo unspecified) | 
17 | 2 | 10 | 10 |  |  | O=C(O)CC1CC1c1ccc(OCCc2ccc3c(n2)NCCC3)c(F)c1F (stereo unspecified) | 
18 | 1.6 | 1.5 | 4.5 |  |  | O=C(O)CC1C(c2ccc(OCCc3ccc4c(n3)NCCC4)cc2)C1(Cl)Cl (stereo unspecified) | clearance [12]: 2.2 mL/min/kg; half-life [13]: 240 min; Cmax [10]: 17400 ng/mL; bioavailability [14]: 100%; Vd [15]: 0.493 L/kg
19 | 1.3 | 1.5 | 10 |  |  | CC1(C)C(CC(=O)O)C1c1ccc(OCCc2ccc3c(n2)NCCC3)cc1 (stereo in doubt; 83) | t1/2 (Rattus norvegicus [3]): 3.5 h; Cmax (Rattus norvegicus [4]): 23.5 µg/mL; Vdss (Rattus norvegicus [5]): 419 mL/kg
20 | 1 | 0.9 | 9.8 |  | 3 | O=C(O)CC1CC1c1ccc(OCCc2ccc3c(n2)NCCC3)c(O)c1 (stereo unspecified) | 
21 | 0.6 | 0.6 | 2.57 | 6 | 1.4 | O=C(O)CC1CC1c1ccc(OCCc2ccc3c(n2)NCCC3)cc1 (stereo in doubt; (+)7) | t1/2 (Rattus norvegicus [3]): 4 h; Cmax (Rattus norvegicus [4]): 14.8 µg/mL; F (Rattus norvegicus [11]): 100%; Vdss (Rattus norvegicus [5]): 915 mL/kg
22 | 0.5 | 11 | 3.53 | 11 | 3 | O=C(O)CC1CC1c1ccc(OCCc2ccc3c(n2)NCCC3)c(F)c1 (stereo unspecified) | clearance [12]: 5.8 mL/min/kg; half-life [13]: 222 min; Cmax [10]: 15000 ng/mL; bioavailability [14]: 100%; Vd [15]: 0.864 L/kg
23 | 0.5 | 2 | 25 | 28 |  | O=C(O)CC(Cc1ccc(OCCCNc2ccccn2)cc1)c1cccnc1 (stereo unspecified) | bioavailability [6]: 100%; AUC [7]: 200 ng·h/mL; half-life [8]: 102 min; AUC [9]: 300 ng·h/mL
24 | 0.4 | 0.4 | 1.79 |  | 4 | CC1(C)C(CC(=O)O)C1c1ccc(OCCc2ccc3c(n2)NCCC3)cc1 (stereo in doubt; (+)83) | clearance [12]: 0.9 mL/min/kg; half-life [13]: 306 min; Cmax [10]: 33000 ng/mL; bioavailability [14]: 100%; Vd [15]: 0.276 L/kg
